Data as given in article PMC4319531 (Bioorganic & medicinal chemistry letters, 2014).

Columns and labels:
[1] = microsomes
[2] = Metabolic stability in human intestinal microsomes; conditions: both, pooled human intestinal microsomes, pH 7.4
[3] = Metabolic stability in human liver microsomes; conditions: both, pooled human liver microsomes, pH 7.4
[4] = target: T1, recombinant CE-2 (Homo sapiens, UniProt O00748); assay: Incubation with purified recombinant CE-2; assay type: in vitro ADME; conditions: 10 μM, within 60 minutes at room temperature
T1 sequence (O00748 27-559): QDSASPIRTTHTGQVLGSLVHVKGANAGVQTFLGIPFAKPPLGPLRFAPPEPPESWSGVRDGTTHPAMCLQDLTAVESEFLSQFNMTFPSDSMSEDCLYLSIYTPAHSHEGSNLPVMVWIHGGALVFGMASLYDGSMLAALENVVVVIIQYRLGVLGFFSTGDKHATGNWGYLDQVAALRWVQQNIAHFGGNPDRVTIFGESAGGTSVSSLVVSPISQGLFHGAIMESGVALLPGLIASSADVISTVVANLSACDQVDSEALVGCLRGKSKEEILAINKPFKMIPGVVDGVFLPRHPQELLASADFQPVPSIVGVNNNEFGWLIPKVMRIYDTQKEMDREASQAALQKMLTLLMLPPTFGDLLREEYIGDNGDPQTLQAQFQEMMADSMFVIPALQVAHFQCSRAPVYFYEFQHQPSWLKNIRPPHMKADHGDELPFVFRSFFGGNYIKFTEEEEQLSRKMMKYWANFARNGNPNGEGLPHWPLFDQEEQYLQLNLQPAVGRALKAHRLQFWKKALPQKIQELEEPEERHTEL

[5] = target: T2, recombinant CE-1 (Homo sapiens, UniProt P23141); assay: Incubation with purified recombinant CE-1; assay type: in vitro ADME; conditions: 10 μM, within 60 minutes at room temperature
T2 sequence (P23141 18-567): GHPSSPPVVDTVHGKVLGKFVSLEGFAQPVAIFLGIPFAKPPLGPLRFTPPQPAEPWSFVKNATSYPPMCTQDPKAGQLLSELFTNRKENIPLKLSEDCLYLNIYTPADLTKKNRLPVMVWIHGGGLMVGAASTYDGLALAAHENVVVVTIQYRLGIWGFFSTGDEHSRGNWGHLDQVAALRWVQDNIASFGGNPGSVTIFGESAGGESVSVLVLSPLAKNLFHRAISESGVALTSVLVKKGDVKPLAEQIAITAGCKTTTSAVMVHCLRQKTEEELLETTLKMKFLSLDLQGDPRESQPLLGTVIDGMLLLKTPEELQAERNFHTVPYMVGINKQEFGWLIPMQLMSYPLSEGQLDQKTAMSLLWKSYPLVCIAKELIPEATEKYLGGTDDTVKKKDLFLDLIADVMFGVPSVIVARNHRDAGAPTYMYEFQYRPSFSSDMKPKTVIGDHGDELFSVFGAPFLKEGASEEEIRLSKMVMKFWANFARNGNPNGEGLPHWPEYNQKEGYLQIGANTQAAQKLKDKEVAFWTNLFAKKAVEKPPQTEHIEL

| Molecule | microsomal CLint at 1 μM [2] | sensitivity to hydrolysis by recombinant CE-2 [4] | sensitivity to hydrolysis by recombinant CE-1 [5] | further results |
| --- | --- | --- | --- | --- |
| 2-(4-(4((benzyl(2methyl3(methylsulfonamido)phenyl)amino)methyl)phenoxy)phenoxy)ethyl 2-isobutyl-5-((methoxycarbonyl)amino)pentanoate [Compound 8b] |  |  |  | CLint, in vitro HIM (microsomes): 220 µL/min/mg; half life (t1/2, min) HIM (pH 7.4): 6.3 min; half life (t1/2, min) HLM ([1]; human, pH 7.4): 17 min; CLint, in vitro HLM [1]: 82 µL/min/mg |
| COC(=O)NCCCC(C)C(=O)Oc1ccc(Oc2ccc(CN(Cc3ccccc3)c3cccc(NS(C)(=O)=O)c3C)cc2)cc1 (stereo not drawn) [Compound 8a, 4-(4-((benzyl(2-methyl-3-(methylsulfonamido)phenyl)amino)methyl)phenoxy)phenyl 5-((methoxycarbonyl)amino)-2-methylpentanoate] | 2600 µL/min/mg |  |  | microsomal CLint at 1 μM [3]: 1000 µL/min/mg |
| C#CCC(CCCNC(=O)OC)C(=O)Oc1ccc(Oc2ccc(CN(Cc3ccccc3)c3cccc(NS(C)(=O)=O)c3C)cc2)cc1 (stereo not drawn) [Compound 8c] | 1700 µL/min/mg |  |  |  |
| COC(=O)NCCCC(Cc1ccccc1)C(=O)Oc1ccc(Oc2ccc(CN(Cc3ccccc3)c3cccc(NS(C)(=O)=O)c3C)cc2)cc1 (stereo not drawn) [Compound 8d] | 140 µL/min/mg |  |  |  |

Second part, led by results:

| microsomal CLint at 1 μM [2] | sensitivity to hydrolysis by recombinant CE-2 [4] | sensitivity to hydrolysis by recombinant CE-1 [5] | Molecule | further results |
| --- | --- | --- | --- | --- |
| 1000 µL/min/mg |  |  | COC(=O)NCCCC(C)(C)C(=O)Oc1ccc(Oc2ccc(CN(Cc3ccccc3)c3cccc(NS(C)(=O)=O)c3C)cc2)cc1 [Compound 8e, 4-(4-((benzyl(2-methyl-3-(methylsulfonamido)phenyl)amino)methyl)phenoxy)phenyl 5-((methoxycarbonyl)amino)-2,2-dimethylpentanoate] |  |
| 43 µL/min/mg | moderate to extensive hydrolysis | completely resistant | COC(=O)NCCCC(C)(Cc1ccccc1)C(=O)Oc1ccc(Oc2ccc(CN(Cc3ccccc3)c3cccc(NS(C)(=O)=O)c3C)cc2)cc1 (stereo not drawn) [Compound 8f] |  |
| 480 µL/min/mg | moderate to extensive hydrolysis | completely resistant | COC(=O)NCCCC(Cc1cn(Cc2ccccc2)nn1)C(=O)Oc1ccc(Oc2ccc(CN(Cc3ccccc3)c3cccc(NS(C)(=O)=O)c3C)cc2)cc1 (stereo not drawn) [Compound 8g, 4-(4-((benzyl(2-methyl-3-(methylsulfonamido)phenyl)amino)methyl)phenoxy)phenyl 2-((1-benzyl-1H-1,2,3-triazol-4-yl)methyl)-5-((methoxycarbonyl)amino)pentanoate] | microsomal CLint at 1 μM [3]: 140 µL/min/mg |
| 1900 µL/min/mg | moderate to extensive hydrolysis | completely resistant | C#CCC(CCCNC(=O)OC)C(=O)OCCOc1ccc(Oc2ccc(CN(Cc3ccccc3)c3cccc(NS(C)(=O)=O)c3C)cc2)cc1 (stereo not drawn) [Compound 9c] |  |
|  | moderate to extensive hydrolysis | completely resistant | COC(=O)NCCCC(Cc1cn(Cc2ccccc2)nn1)C(=O)OCCOc1ccc(Oc2ccc(CN(Cc3ccccc3)c3cccc(NS(C)(=O)=O)c3C)cc2)cc1 (stereo not drawn) [Compound 9g] |  |
